Measured values as given in patent publication US6645991B1, “αvβ3 integrin inhibitors” (Merck Patent GmbH, priority 1999, dated 2003).

Molecular target: receptor αvβ3 (Homo sapiens, UniProt P05106+P06756)
Assay: vitronectin binding test (method of Smith et al.)
Source text: For the vitronectin binding test, the IC50 value is given, i.e. the concentration in nmol/litre which inhibits 50% of the vitronectin binding to the corresponding isolated receptor (method of Smith et al., J. Biol. Chem. 265, 12267-71, 1990).

receptor αvβ3, sequence (P06756 31-889 limits assumed): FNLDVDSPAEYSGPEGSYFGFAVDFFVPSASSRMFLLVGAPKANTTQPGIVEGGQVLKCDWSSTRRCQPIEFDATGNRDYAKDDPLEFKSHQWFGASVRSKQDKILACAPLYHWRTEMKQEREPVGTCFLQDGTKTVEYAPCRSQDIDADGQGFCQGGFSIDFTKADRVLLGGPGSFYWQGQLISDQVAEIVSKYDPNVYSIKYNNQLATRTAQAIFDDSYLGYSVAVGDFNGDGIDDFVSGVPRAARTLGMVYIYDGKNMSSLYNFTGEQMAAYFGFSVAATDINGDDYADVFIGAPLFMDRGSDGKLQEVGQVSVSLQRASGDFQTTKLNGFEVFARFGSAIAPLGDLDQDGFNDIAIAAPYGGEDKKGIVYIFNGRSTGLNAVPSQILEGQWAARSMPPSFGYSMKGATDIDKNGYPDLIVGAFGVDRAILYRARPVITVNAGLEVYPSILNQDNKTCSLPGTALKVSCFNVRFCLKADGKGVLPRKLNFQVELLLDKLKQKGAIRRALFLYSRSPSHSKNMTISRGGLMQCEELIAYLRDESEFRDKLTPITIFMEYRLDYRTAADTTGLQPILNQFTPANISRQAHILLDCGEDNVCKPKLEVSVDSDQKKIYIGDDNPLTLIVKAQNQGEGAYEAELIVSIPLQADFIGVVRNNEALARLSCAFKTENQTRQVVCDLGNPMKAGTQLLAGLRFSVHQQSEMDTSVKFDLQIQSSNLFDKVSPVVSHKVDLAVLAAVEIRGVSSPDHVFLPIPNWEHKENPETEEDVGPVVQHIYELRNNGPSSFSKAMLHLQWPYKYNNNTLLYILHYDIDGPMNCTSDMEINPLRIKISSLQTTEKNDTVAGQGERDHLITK
receptor αvβ3, sequence (P06756 891-1048 limits assumed): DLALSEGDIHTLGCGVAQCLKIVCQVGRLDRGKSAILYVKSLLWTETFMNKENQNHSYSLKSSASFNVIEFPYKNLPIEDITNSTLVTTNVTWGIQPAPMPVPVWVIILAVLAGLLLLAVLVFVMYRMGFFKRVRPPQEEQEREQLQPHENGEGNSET
receptor αvβ3, sequence (P05106 27-788): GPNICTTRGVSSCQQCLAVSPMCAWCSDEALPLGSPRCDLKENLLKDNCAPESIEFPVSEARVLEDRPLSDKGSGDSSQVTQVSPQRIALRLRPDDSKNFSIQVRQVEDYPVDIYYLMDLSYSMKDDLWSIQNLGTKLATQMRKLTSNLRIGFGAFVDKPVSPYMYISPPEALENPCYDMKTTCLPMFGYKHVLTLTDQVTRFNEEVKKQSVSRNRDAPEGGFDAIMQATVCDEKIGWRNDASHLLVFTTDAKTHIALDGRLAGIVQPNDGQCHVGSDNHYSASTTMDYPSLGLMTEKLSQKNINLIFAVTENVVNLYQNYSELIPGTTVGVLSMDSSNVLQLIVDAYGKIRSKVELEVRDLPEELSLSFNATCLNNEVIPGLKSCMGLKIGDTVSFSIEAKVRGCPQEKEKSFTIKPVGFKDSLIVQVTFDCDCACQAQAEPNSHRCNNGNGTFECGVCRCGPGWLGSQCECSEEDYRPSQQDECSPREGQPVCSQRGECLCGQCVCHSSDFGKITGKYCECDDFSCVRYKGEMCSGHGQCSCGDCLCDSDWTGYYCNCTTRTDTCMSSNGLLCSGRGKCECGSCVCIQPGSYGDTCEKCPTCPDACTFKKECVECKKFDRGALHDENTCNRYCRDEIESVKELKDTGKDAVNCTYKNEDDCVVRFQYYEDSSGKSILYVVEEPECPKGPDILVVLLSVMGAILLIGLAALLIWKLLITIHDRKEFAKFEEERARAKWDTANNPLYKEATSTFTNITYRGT

IC50 (concentration which inhibits 50% of the vitronectin binding to the isolated receptor): 5.3 nM | Inhibition of vitronectin binding to the receptor αvβ3 (qualitative statement): demonstrated experimentally
SMILES: O=C(O)CC(Cc1ccc(OCCCNc2ccccn2)cc1)c1ccccc1 (centres unmarked) [3-phenyl-4-{4-[3-(pyridin-2-ylamino)propoxy]phenyl}butyric acid]
